From patent US10899754B2, “Modulators of indoleamine 2,3-dioxygenase” (GLAXOSMITHKLINE INTELLECTUAL PROPERTY DEVELOPMENT LIMITED, priority 2016, dated 2021)

Experiments:
[1] = target: indoleamine 2, 3-dioxygenase (IDO1) (Homo sapiens, UniProt P14902); assay: IDO1 HeLa RapidFire MS assay (kynurenine detection by mass spectrometry); type: cell-based; set-up: to induce the expression of indoleamine 2, 3-dioxygenase (IDO1); settings: HeLa cells, pIC50, read-out: IDO1_HELA_PXC50 (converted)
Method: IDO1 HeLa RapidFire MS Assay
(§1) Compounds of the present invention were tested via high-throughput cellular assays utilizing detection of kynurenine via mass spectrometry and cytotoxicity as end-points. For the mass spectrometry and cytotoxicity assays, human epithelial HeLa cells (CCL-2; ATCC®, Manassas, Va.) were stimulated with human interferon-γ (IFN-γ) (Sigma-Aldrich Corporation, St. Louis, Mo.) to induce the expression of indoleamine 2, 3-dioxygenase (IDO1). Compounds with IDO1 inhibitory properties decreased the amount of kynurenine produced by the cells via the tryptophan catabolic pathway. Cellular toxicity due to the effect of compound treatment was measured using CellTiter-Glo® reagent (CTG) (Promega Corporation, Madison, Wis.), which is based on luminescent detection of ATP, an indicator of metabolically active cells.
(§2) In preparation for the assays, test compounds were serially diluted 3-fold in DMSO from a typical top concentration of 1 mM or 5 mM and plated at 0.5 μL in 384-well, polystyrene, clear bottom, tissue culture treated plates with lids (Greiner Bio-One, Kremsmünster, Austria) to generate 11-point dose response curves. Low control wells (0% kynurenine or 100% cytotoxicity) contained either 0.5 μL of DMSO in the presence of unstimulated (−IFN-γ) HeLa cells for the mass spectrometry assay or 0.5 μL of DMSO in the absence of cells for the cytotoxicity assay, and high control wells (100% kynurenine or 0% cytotoxicity) contained 0.5 μL of DMSO in the presence of stimulated (+IFN-γ) HeLa cells for both the mass spectrometry and cytotoxicity assays.
(§3) Frozen stocks of HeLa cells were washed and recovered in DMEM high glucose medium with HEPES (Thermo Fisher Scientific, Inc., Waltham, Mass.) supplemented with 10% v/v certified fetal bovine serum (FBS) (Thermo Fisher Scientific, Inc., Waltham, Mass.), and 1× penicillin-streptomycin antibiotic solution (Thermo Fisher Scientific, Inc., Waltham, Mass.). The cells were diluted to 100,000 cells/mL in the supplemented DMEM medium. 50 μL of either the cell suspension, for the mass spectrometry assay, or medium alone, for the cytotoxicity assay, were added to the low control wells, on the previously prepared 384-well compound plates, resulting in 5,000 cells/well or 0 cells/well respectively. IFN-γ was added to the remaining cell suspension at a final concentration of 10 nM, and 50 μL of the stimulated cells were added to all remaining wells on the 384-well compound plates. The plates, with lids, were then placed in a 37° C., 5% CO2 humidified incubator for 2 days.
(§4) Following incubation, the 384-well plates were removed from the incubator and allowed to equilibrate to room temperature for 30 minutes. For the cytotoxicity assay, CellTiter-Glo® was prepared according to the manufacturer's instructions, and 10 μL were added to each plate well. After a twenty minute incubation at room temperature, luminescence was read on an EnVision® Multilabel Reader (PerkinElmer Inc., Waltham, Mass.). For the mass spectrometry assay, 10 μL of supernatant from each well of the compound-treated plates were added to 40 μL of acetonitrile, containing 10 μM of an internal standard for normalization, in 384-well, polypropylene, V-bottom plates (Greiner Bio-One, Kremsmünster, Austria) to extract the organic analytes. Following centrifugation at 2000 rpm for 10 minutes, 10 μL from each well of the acetonitrile extraction plates were added to 90 μL of sterile, distilled H2O in 384-well, polypropylene, V-bottom plates for analysis of kynurenine and the internal standard on the RapidFire 300 (Agilent Technologies, Santa Clara, Calif.) and 4000 QTRAP MS (SCIEX, Framingham, Mass.). MS data were integrated using Agilent Technologies' RapidFire Integrator software, and data were normalized for analysis as a ratio of kynurenine to the internal standard. […]

[2] = tested on: human epithelial HeLa cells; assay: HeLa cytotoxicity assay (CellTiter-Glo); type: cell-based; settings: pCC50
Method: as §1, §2, §3, §4

Sequence of indoleamine 2, 3-dioxygenase (IDO1) (P14902 whole entry): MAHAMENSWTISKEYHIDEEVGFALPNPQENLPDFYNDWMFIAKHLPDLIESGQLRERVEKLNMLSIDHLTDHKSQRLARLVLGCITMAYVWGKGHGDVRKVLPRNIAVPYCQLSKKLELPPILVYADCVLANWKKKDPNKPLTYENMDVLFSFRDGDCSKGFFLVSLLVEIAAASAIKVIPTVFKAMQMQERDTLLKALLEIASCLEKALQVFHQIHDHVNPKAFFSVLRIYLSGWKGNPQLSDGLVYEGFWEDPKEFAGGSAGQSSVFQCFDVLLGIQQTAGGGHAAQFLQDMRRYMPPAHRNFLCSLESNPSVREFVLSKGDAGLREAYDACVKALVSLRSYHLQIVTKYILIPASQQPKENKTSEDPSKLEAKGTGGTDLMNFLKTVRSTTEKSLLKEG

Row | Compound | IC50 [1] [nM] | HELA_IDO1_TOX_PXC50 [2]
1 | CC(C)CN(CC(C)C)c1ccc(C(C)CC(=O)O)cc1Nc1nnc(C2CC2)o1.O=C(O)C(F)(F)F (stereo not drawn) [example 126, 3-{4-[bis(2-methylpropyl)amino]-3-[(5-cyclopropyl-1,3,4-oxadiazol-2-yl)amino]phenyl}butanoic acid] | 631 | <4.3
2 | CC(C)CN(c1ccc(C(C)CC(=O)O)cc1Nc1nc2n(n1)CCCC2)C1CCCCC1 (stereo not drawn) [example 150, 3-{4-[cyclohexyl(2-methylpropyl)amino]-3-({5H,6H,7H,8H-[1,2,4]triazolo[1,5-a]pyridin-2-yl}amino)phenyl}butanoic acid] | 3160 | <5
3 | CC(C)CN(CC(C)C)c1ccc([C@@H]2C[C@@H]2C(=O)O)cc1Nc1nc(C(F)(F)F)ns1 (single isomer, unassigned) [example 206] | 31.6 | <5
4 | CC(C)CN(CC(C)C)c1ccc(C(C)CC(=O)O)cc1Nc1cnc(CO)s1 (stereo not drawn) [example 207, 3-{4-[bis(2-methylpropyl)amino]-3-{[2-(hydroxymethyl)-1,3-thiazol-5-yl]amino}phenyl}butanoic acid] | 631 | <5
5 | CC(C)CN(c1ccc(C(C)CC(=O)O)cc1Nc1nc2ccccn2n1)C1CCCCC1 (stereo not drawn) [example 145, 3-{4-[cyclohexyl(2-methylpropyl)amino]-3-({[1,2,4]triazolo[1,5-a]pyridin-2-yl)amino)phenyl}butanoic acid] | 794 | <5
6 | CC(C)CN(c1ccc(C(C)OCC(=O)O)cc1Nc1ccc(C(N)=O)cn1)C1CCCCC1 (stereo not drawn) [example 201, 2-(1-{3-[(5-carbamoylpyridin-2-yl)amino]-4-[cyclohexyl(2-methylpropyl)amino]phenyl}ethoxy)acetic acid] | > 10000 | <5
7 | CC(C)CN(CC(C)C)c1ccc(C(C)CC(=O)O)cc1Nc1ccsc1 (stereo not drawn) [example 143, 3-{4-[bis(2-methylpropyl)amino]-3-[(thiophen-3-yl)amino]phenyl}butanoic acid] | 316 | <5
8 | CC(C)CN(CC(C)C)c1ccc(C(C)CC(=O)O)cc1Nc1nc(-c2ccncc2)cs1 (stereo not drawn) [example 130, 3-{4-[bis(2-methylpropyl)amino]-3-{[4-(pyridin-4-yl)-1,3-thiazol-2-yl]amino]phenyl}butanoic acid] | 1580 | <4.3
9 | CC(C)CN(CC(C)C)c1ccc(C(C)CC(=O)O)cc1Nc1nc(C2CC2)cs1 (stereo not drawn) [example 141, 3-{4-[bis(2-methylpropyl)amino]-3-[(4-cyclopropyl-1,3-thiazol-2-yl)amino]phenyl}butanoic acid] | 794 | <5
10 | CC(C)CN(CC(C)C)c1ccc(C(C)CC(=O)O)cc1Nc1ccc(CO)cn1 (stereo not drawn) [example 194, 3-{4-[bis(2-methylpropyl)amino]-3-{[5-(hydroxymethyl)pyridin-2-yl]amino}phenyl}butanoic acid] | 200 | <5
11 | CC(C)CN(CC(C)C)c1ccc(C(C)CC(=O)O)cc1Nc1nnc(CC(N)=O)s1 (stereo not drawn) [example 195, 3-{4-[bis(2-methylpropyl)amino]-3-{[5-(carbamoylmethyl)-1,3,4-thiadiazol-2-yl]amino}phenyl}butanoic acid] | 3160 | <5
12 | CC(C)CN(CC(C)C)c1ccc(C(C)CC(=O)O)cc1NC1CCC(C(=O)O)CC1 (stereo not drawn) [example 198, 4-({2-[bis(2-methylpropyl)amino]-5-(1-carboxypropan-2-yl)phenyl}amino)cyclo-hexane-1-carboxylic acid] | > 10000 | <5
13 | CC(C)CN(c1ccc(C(C)CC(=O)O)cc1NC1=N[C@@H](c2ccccc2)CS1)C1CCCCC1 (stereo partly drawn) [example 149, 3-{4-[cyclohexyl(2-methylpropyl)amino]-3-{[(4S)-4-phenyl-4,5-dihydro-1,3-thiazol-2-yl]amino}phenyl}butanoic acid] | 794 | <5
14 | CC(C)CN(CC(C)C)c1ccc(C(C)CC(=O)O)cc1Nc1ccccc1 (stereo not drawn) [example 142, 3-{4-[bis(2-methylpropyl)amino]-3-(phenylamino)phenyl} butanoic acid] | 158 | <5
15 | CC(C)CN(CC(C)C)c1ccc(C(C)CC(=O)O)cc1Nc1ccc(NS(C)(=O)=O)cn1 (stereo not drawn) [example 200, 3-{4-[bis(2-methylpropyl)amino]-3-[(5-methanesulfonamido-pyridin-2-yl)amino]phenyl}butanoic acid] | > 10000 | <5
16 | CC(C)CN(c1ccc(C(C)CC(=O)O)cc1NC1CCS(=O)(=O)CC1)C1CCCCC1 (stereo not drawn) [example 134, 3-{4-[cyclohexyl(2-methylpropyl)amino]-3-[(1,1-dioxo-1λ^6-thian-4-yl)amino]phenyl}butanoic acid] | 3160 | <5
17 | COCCN(c1ccc(-c2ccccc2C(=O)O)cc1Nc1nc2ccccc2[nH]1)C1CCCCC1 [example 285, 3′-[(1H-1,3-benzodiazol-2-yl)amino]-4′-[cyclohexyl(2-methoxyethyl)amino]-[1,1′-biphenyl]-2-carboxylic acid] | 794 | <5
18 | CC(C)CN(c1ccc(-c2cn(C)nc2C(=O)O)cc1Nc1nc2ccccc2o1)C1CCCCC1 [example 176, 4-{3-[(1,3-benzoxazol-2-yl)amino]-4-[cyclohexyl(2-methylpropyl)amino]phenyl}-1-methyl-1H-pyrazole-3-carboxylic acid] | 3160 | <5
19 | CC(C)CN(c1ccc(-c2c[nH]nc2C(=O)O)cc1Nc1nc2ccccc2o1)C1CCCCC1 [example 175, 4-{3-[(1,3-benzoxazol-2-yl)amino]-4-[cyclohexyl(2-methylpropyl)amino]phenyl}-1H-pyrazole-3-carboxylic acid] | 5010 | <5
20 | COc1ccnc(Nc2cc(C(C)CC(=O)O)ccc2N(CC(C)C)CC(C)C)n1.O=C(O)C(F)(F)F (stereo not drawn) [example 127, 3-{4-[bis(2-methylpropyl)amino]-3-[(4-methoxypyrimidin-2-yl)amino]phenyl}butanoic acid] | 2510 | <4.3
21 | CC(C)CN(c1ccc(C(C)CC(=O)O)cc1NC1CCN(C)CC1)C1CCCCC1 (stereo not drawn) [example 140, 3-{4-[cyclohexyl(2-methylpropyl)amino]-3-[(1-methylpiperidin-4-yl)amino]phenyl}butanoic acid] | 3160 | <5
22 | CC(C)CN(CC(C)C)c1ccc(C(C)CC(=O)O)cc1Nc1nncs1 (stereo not drawn) [example 196, 3-{4-[bis(2-methylpropyl)amino]-3-[(1,3,4-thiadiazol-2-yl)amino]phenyl}butanoic acid] | 158 | <5
23 | CC(=O)N1CCC(Nc2cc(C(C)CC(=O)O)ccc2N(CC(C)C)C2CCCCC2)C1 (stereo not drawn) [example 135, 3-{3-[(1-acetylpyrrolidin-3-yl)amino]-4-[cyclohexyl(2-methylpropyl)amino]phenyl}butanoic acid] | 3980 | <5
24 | CC(C)CN(c1ccc([C@H](C)CC(=O)O)cc1NC1CCC[C@@H](C)C1)C1CCCCC1 (stereo partly drawn) [example 184, (3R)-3-{4-[cyclohexyl(2-methylpropyl)amino]-3-{[(3R)-3-methylcyclohexyl]amino}phenyl}butanoic acid] | 501 | <5
